Data set [1] deals with SW620 (human colon carcinoma cell line) xenograft. Put plainly: Efficacy in SW620 xenograft model in mice. As to conditions: irinotecan 90 mg/kg, 2f 15, 2i 15, 2h 25, 2a 25 mg/kg IV days 1, 8, 15; study to day 119.
In data set [2] the test system is HT-29 (human colon carcinoma cell line) xenograft. The experiment in a line: Efficacy in HT-29 xenograft model in mice. Format: in vivo, Balb/c nude mice. As to conditions: day 36, vs vehicle; irinotecan 90 mg/kg, 2f 15, 2i 15, 2h 25 mg/kg IV.
For data set [3] the test system is unchanged. Put plainly: Efficacy alone or in combination with olaparib in HT-29 xenograft model in mice. Format: in vivo, Balb/c nude mice. The method, then:
Olaparib solid powder obtained from MedChemExpress was solubilised in DMSO and an oral formulation was prepared at a final concentration of 5 mg/ml in 10% DMSO: 15% (2-Hydroxypropyl)-β-cyclodextrin in sterile water.
The endpoint for the analysis was a tumour volume of 1200 mm^3.
Statistical analysis of tumour growth was performed on day 28 when the first study animals reached endpoint criteria for tumour burden.

For data set [4] the following is noted: patients to which irinotecan is administered; cited from earlier work.
The conditions of data set [5]: 100 mg/kg irinotecan.
The test system of data set [6] is HT-29 cells (human colon cancer cell line). Put plainly: In-vitro anti-cancer drug screening, cell counting (SRB) assay. Format: cell-based. The following applies: Homo sapiens, concentration required to inhibit net cell growth by 50%. The method, then:
A study was carried out to determine the ability of example dendrimers to inhibit growth of HT-29 cells (human colon cancer cell line) using a cell counting (SRB) assay.

The subject of data set [7] is MDA-MB-231 (human breast carcinoma cell line) xenograft. Put plainly: Efficacy in MDA-MB-231 xenograft model in mice. Type of data set: in vivo, Balb/c nude mice. The following applies: irinotecan 90 mg/kg, 2f 15, 2h 25 mg/kg IV once weekly for three weeks.

One may read the GI50 as the concentration at which growth is held to half of that of the control. A low value points to more potent growth inhibition. For `CCc1c2c(nc3ccc(OC(=O)N4CCC(N5CCCCC5)CC4)cc13)-c1cc3c(c(=O)n1C2)COC(=O)[C@]3(O)CC` [Irinotecan, reference compound], the “effect on SW620 tumour growth” value in data set [1] is given as “delay of tumour growth with the exception of one tumour, which completely regressed after day 25”. The same compound registered a Tumour growth inhibited in data set [2] of 23%. The “Percent TGI” value in data set [3] (day 28, olaparib 50 mg/kg orally 5 days on/2 days off for 3 weeks, irinotecan 80 mg/kg IV days 1, 8, 15) is listed as 33%. In data set [3] (olaparib 50 mg/kg orally, irinotecan 80 mg/kg IV, their combination, 2f 5 and 8 mg/kg IV), the “effect on HT-29 tumour growth (in words)” value was “moderate effect on tumour growth”. The “patients with early symptoms of gastrointestinal toxicity (diarrhea, emesis, diaphoresis, abdominal cramping)” value in data set [4] is “up to 80%”. Also, the signs of toxicity entry in data set [5] was “pale extremities and lethargy”. The GI50 in data set [6] came out at 7 µM. Moreover, in data set [7], the “effect on MDA-MB-231 tumour growth” value is listed as “continued to grow during drug treatment”.
